US8026257B2 (Bristol-Myers Squibb Company, priority 2007, dated 2011)
Counter-ions that a name gives are not always drawn.

What was measured:
[1] = molecular target: T1, NK-1 (Homo sapiens, UniProt P25103); experiment: NK1 radioligand binding assay ([125I]Substance P, U373 membranes); conditions: U373 cell membranes, 200 pM [125I]Substance P, 1 hour at room temperature
T1 construct: 30 ul/well of a 2×U373 membrane preparation
Outline: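 U373 cell membranes incubated 1 h at room temperature with [125I]Substance P at its Kd (added as 400 pM 2× solution) in Tris-Cl pH 7.5 with MgCl2, BSA, bacitracin and protease inhibitors. Bound radioligand collected on PEI-treated GF/B filters and counted. IC50 from four-parameter fit of triplicates; L-733,060 defined 100% inhibition.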

[2] = molecular target: hSERT (Homo sapiens, UniProt P31645); experiment: SERT radioligand binding assay ([125I]RTI-55, HEK-hSERT membranes); conditions: HEK-293 hSERT membranes, 260 pM [125I]RTI-55, 1 hour at room temperature; read-out: SERT IC50
Outline: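 Crude membranes from HEK-293 cells expressing hSERT (15 ug/ml, 2× stock) were incubated 1 hour at room temperature with [125I]RTI-55 (520 pM, 2× stock; at Kd) in pH 7.5 Tris, 120 mM NaCl, 5 mM KCl. Bound ligand was collected by GF/B filtration and scintillation counted. IC50 came from four-parameter fit, fluoxetine defining 100% inhibition.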

[3] = background statement, literature reports; cited from earlier work

Sequence of hSERT (P31645 whole entry): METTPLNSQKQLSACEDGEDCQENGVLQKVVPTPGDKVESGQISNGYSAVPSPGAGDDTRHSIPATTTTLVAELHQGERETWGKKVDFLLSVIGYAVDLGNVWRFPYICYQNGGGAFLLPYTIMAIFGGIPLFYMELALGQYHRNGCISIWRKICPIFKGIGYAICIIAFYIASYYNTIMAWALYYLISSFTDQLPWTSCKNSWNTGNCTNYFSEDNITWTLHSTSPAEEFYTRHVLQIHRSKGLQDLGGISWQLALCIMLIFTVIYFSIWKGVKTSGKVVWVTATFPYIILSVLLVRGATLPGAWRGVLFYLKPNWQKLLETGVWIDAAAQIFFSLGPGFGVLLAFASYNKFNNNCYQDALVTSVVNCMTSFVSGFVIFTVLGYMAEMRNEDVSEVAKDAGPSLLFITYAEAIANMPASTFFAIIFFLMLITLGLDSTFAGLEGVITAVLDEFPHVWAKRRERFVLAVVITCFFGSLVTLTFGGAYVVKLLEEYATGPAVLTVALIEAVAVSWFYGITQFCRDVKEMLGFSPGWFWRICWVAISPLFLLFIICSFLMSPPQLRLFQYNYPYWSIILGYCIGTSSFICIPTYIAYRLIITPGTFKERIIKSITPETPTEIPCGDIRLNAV
T1 sequence (P25103 whole entry): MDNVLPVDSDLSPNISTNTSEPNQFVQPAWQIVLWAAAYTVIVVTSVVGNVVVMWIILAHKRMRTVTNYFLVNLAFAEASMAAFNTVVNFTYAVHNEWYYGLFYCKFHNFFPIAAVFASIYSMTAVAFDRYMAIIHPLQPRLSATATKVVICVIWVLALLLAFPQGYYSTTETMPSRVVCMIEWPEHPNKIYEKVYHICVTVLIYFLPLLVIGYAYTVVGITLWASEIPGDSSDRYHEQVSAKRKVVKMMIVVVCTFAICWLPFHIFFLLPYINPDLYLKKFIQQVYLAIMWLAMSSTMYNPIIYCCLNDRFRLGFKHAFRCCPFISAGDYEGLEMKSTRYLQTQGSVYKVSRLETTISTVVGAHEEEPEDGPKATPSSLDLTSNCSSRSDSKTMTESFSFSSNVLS

SMILES	IC50 [1]	IC50 [2]	antidepressant activity [3]
CC(OCC1(c2ccc(F)cc2)CCN(C)CC1)c1cc(C(F)(F)F)cc2cc[nH]c12 (racemic) [Example 72, (±)-7-(1-((4-(4-Fluorophenyl)-1-methylpiperidin-4-yl)methoxy)ethyl)-5-(trifluoromethyl)-1H-indole]	0.01 to 100 nM	0.01 to 100 nM	–
CN(C)CC(OCC1(c2ccc(F)cc2)CCNCC1)c1cc(Cl)cc2cn[nH]c12 (stereo not shown) [Example 111, 2-(5-chloro-1H-indazol-7-yl)-2-((4-(4-fluorophenyl)piperidine-4-yl)methoxy)-N,N-dimethylethanamine]	> 300 nM	0.01 to 100 nM	–
CC(OCC1(c2ccc(F)cc2)CCN(C)CC1)c1cc(C(F)(F)F)cc2ccn(C)c12 (single isomer, unassigned) [Example 75, 7-(1-((4-(4-Fluorophenyl)-1-methylpiperidin-4-yl)methoxy)ethyl)-1-methyl-5-(trifluoromethyl)-1H-indole]	0.01 to 100 nM	0.01 to 100 nM	–
CC(OCC1(c2ccc(F)cc2)CCNCC1)c1cc(C(F)(F)F)cc2cnn(C)c12 (single isomer, unassigned) [Example 26, 7-(1-((4-(4-Fluorophenyl)piperidin-4-yl)methoxy)ethyl)-1-methyl-5-(trifluoromethyl)-1H-indazole]	100 to 300 nM	0.01 to 100 nM	–
CN1CCC(COC(C#N)c2cc(Cl)cc3cn[nH]c23)(c2ccc(F)cc2)CC1 (stereo not shown) [Example 95, 2-(5-Chloro-1H-indazol-7-yl)-2-((4-(4-fluorophenyl)-1-methylpiperidin-4-yl)methoxy)acetonitrile]	0.01 to 100 nM	0.01 to 100 nM	–
CN1CCC(COCc2cc(C(F)(F)F)cc3c2ccn3C)(c2ccccc2)CC1 [Example 77, 1-Methyl-4-(((1-methyl-4-phenylpiperidin-4-yl)methoxy)methyl)-6-(trifluoromethyl)-1H-indole 2,2,2-trifluoroacetate]	0.01 to 100 nM	0.01 to 100 nM	–
CC(OCC1(c2ccc(F)cc2)CCN(C)CC1)c1cc(C(F)(F)F)cc2c1ccn2C (racemic) [Example 127, (±)-4-(1-((4-(4-fluorophenyl)-1-methylpiperidin-4-yl)methoxy)ethyl)-1-methyl-6-(trifluoromethyl)-1H-indole]	0.01 to 100 nM	0.01 to 100 nM	–
CC(OCC1(c2ccccc2)CCN(C)CC1)c1cc(Br)cc2c1ncn2CC1CC1 (single isomer, unassigned) [Example 131]	0.01 to 100 nM	0.01 to 100 nM	–
CCn1cnc2c(C(C)OCC3(c4ccccc4)CCN(C)CC3)cc(C(F)(F)F)cc21 (single isomer, unassigned) [Example 137]	100 to 300 nM	0.01 to 100 nM	–
Cc1c[nH]c2c(C(C)OCC3(c4ccc(F)cc4)CCN(C)CC3)cc(C(F)(F)F)cc12 (racemic) [Example 126, (±)-7-(1-((4-(4-fluorophenyl)-1-methylpiperidin-4-yl)methoxy)ethyl)-3-methyl-5-(trifluoromethyl)-1H-indole]	0.01 to 100 nM	0.01 to 100 nM	–
COc1ccc(OC(F)(F)F)cc1CN[C@H]1CCCN[C@H]1c1ccccc1 [CP-122,721]	–	–	Robust antidepressant activity
COCC(OCC1(c2ccc(F)cc2)CCN(C)CC1)c1cc(Cl)cc2cn[nH]c12 (stereo not shown) [Example 93, 5-Chloro-7-(1-((4-(4-fluorophenyl)-1-methylpiperidin-4-yl)methoxy)-2-methoxyethyl)-1H-indazole trifluoroacetic acid salt]	0.01 to 100 nM	0.01 to 100 nM	–
CN1CCC(COCc2nc3ccc(C4CC4)cc3n2CC2CC2)(c2ccccc2)CC1 [Example 85, 6-Cyclopropyl-1-(cyclopropylmethyl)-2-(((1-methyl-4-phenylpiperidin-4-yl)methoxy)methyl)-1H-benzo[d]imidazole]	> 300 nM	0.01 to 100 nM	–
CC(OCC1(c2ccc(F)cc2)CCN(C)CC1)c1cc(C2CC2)cc2cn[nH]c12 (racemic) [Example 47, (±)-5-Cyclopropyl-7-(1-((4-(4-fluorophenyl)-1-methylpiperidin-4-yl)methoxy)ethyl)-1H-indazole]	0.01 to 100 nM	0.01 to 100 nM	–
CC(OCC1(c2ccccc2)CCN(C)CC1)c1cc(C(F)(F)F)cc2cn[nH]c12 (racemic) [Example 21, (±)-7-(1-((1-Methyl-4-phenylpiperidin-4-yl)methoxy)ethyl)-5-(trifluoromethyl)-1H-indazole]	0.01 to 100 nM	0.01 to 100 nM	–
N#Cc1ccc(-c2cc(COCC3(c4ccccc4)CCNCC3)c3[nH]ncc3c2)cc1 [Example 3, 4-(7-(((4-Phenylpiperidin-4-yl)methoxy)methyl)-1H-indazol-5-yl)benzonitrile]	0.01 to 100 nM	0.01 to 100 nM	–
CC(OCC1(c2ccc(F)cc2)CCN(C)CC1)c1cc(C(F)(F)F)cc2ccn(C)c12 (single isomer, unassigned) [Example 74, 7-(1-((4-(4-Fluorophenyl)-1-methylpiperidin-4-yl)methoxy)ethyl)-1-methyl-5-(trifluoromethyl)-1H-indole]	> 300 nM	100 to 300 nM	–
C[C@@H](O[C@H]1OCCN(Cc2n[nH]c(=O)[nH]2)[C@H]1c1ccc(F)cc1)c1cc(C(F)(F)F)cc(C(F)(F)F)c1 [MK-869]	–	–	Robust antidepressant activity
CC(OCC1(c2ccc(F)cc2)CCN(C)CC1)c1cc(C(F)(F)F)cc2ccn(C)c12 (racemic) [Example 73, (±)-7-(1-((4-(4-Fluorophenyl)-1-methylpiperidin-4-yl)methoxy)ethyl)-1-methyl-5-(trifluoromethyl)-1H-indole]	0.01 to 100 nM	0.01 to 100 nM	–
FC(F)(F)c1cc(COCC2(c3ccccc3)CCNCC2)c2[nH]nc(C3CC3)c2c1 [Example 35, 3-Cyclopropyl-7-(((4-phenylpiperidin-4-yl)methoxy)methyl)-5-(trifluoromethyl)-1H-indazole]	0.01 to 100 nM	0.01 to 100 nM	–
CN1CCC(COCc2nc3ccc(C(F)(F)F)cc3n2CC2CC2)(c2ccccc2)CC1 [Example 87, 1-(Cyclopropylmethyl)-2-(((1-methyl-4-phenylpiperidin-4-yl)methoxy)methyl)-6-(trifluoromethyl)-1H-benzo[d]imidazole]	> 300 nM	0.01 to 100 nM	–
CC(OCC1(c2ccccc2)CCN(C)CC1)c1cc(C(F)(F)F)cc2ccn(C)c12 (racemic) [Example 71, (±)-1-Methyl-7-(1-((1-methyl-4-phenylpiperidin-4-yl)methoxy)ethyl)-5-(trifluoromethyl)-1H-indole]	0.01 to 100 nM	0.01 to 100 nM	–
CC(OCC1(c2ccc(F)cc2)CCN(C)CC1)c1cc(C(F)(F)F)cc2c1ncn2CC1CC1 (single isomer, unassigned) [Example 134]	0.01 to 100 nM	0.01 to 100 nM	–
CC(OCC1(c2ccc(F)cc2)CCNCC1)c1cc(C(F)(F)F)cc2cn(C)nc12 (single isomer, unassigned) [Example 32, 7-(1-((4-(4-Fluorophenyl)piperidin-4-yl)methoxy)ethyl)-2-methyl-5-(trifluoromethyl)-2H-indazole]	0.01 to 100 nM	0.01 to 100 nM	–
